In patent US20150313225A1:
Like-named read-outs stand apart in the source and are kept apart here.

Key:
Type in all cases: cell-based
Septoria tritici = assay: Microtest against leaf blotch on wheat caused by Septoria tritici (Septtr); conditions: solo product
Botrytis cinerea = assay: Microtiterplate test against the grey mold Botrytis cinerea (Botrci); conditions: solo product
Alternaria solani = assay: Microtest against early blight caused by Alternaria solani (Alteso); conditions: solo product; for inhibition of growth at […]: 0.063 ppm
Pyricularia oryzae = assay: microbe, parasite or virus in culture; conditions: for Observed efficacy: solo product
Leptosphaeria nodorum = assay: Microtest against wheat leaf spots caused by Leptosphaeria nodorum (Leptno); conditions: solo product
Phytophthora infestans = assay: microbe, parasite or virus in culture; conditions: for Observed efficacy: solo product
[1] = Botrytis cinerea, 168 h, 0.016 ppm, read-out: Observed efficacy
[2] = Alternaria solani, 168 h, 4 ppm, read-out: Observed efficacy
[3] = Alternaria solani, 168 h, 16 ppm, read-out: Observed efficacy
[4] = Alternaria solani, 168 h, 63 ppm, read-out: Observed efficacy
[5] = Botrytis cinerea, 168 h, 4 ppm, read-out: Observed efficacy
[6] = Botrytis cinerea, 168 h, 16 ppm, read-out: Observed efficacy
[7] = Pyricularia oryzae, 168 h, read-out: Observed efficacy
[8] = Parastagonospora nodorum, 168 h, read-out: Observed efficacy
[9] = Parastagonospora nodorum, 168 h, 0.016 ppm, read-out: Observed efficacy
[10] = Zymoseptoria tritici, 168 h, read-out: Observed efficacy
[11] = Botrytis cinerea, 168 h, 0.063 ppm, read-out: Observed efficacy
[12] = Botrytis cinerea, 168 h, 0.25 ppm, read-out: Observed efficacy
[13] = Botrytis cinerea, 168 h, read-out: Observed efficacy
[14] = Alternaria solani, 168 h, 0.004 ppm, read-out: Observed efficacy
[15] = Alternaria solani, 168 h, read-out: Observed efficacy
[16] = Alternaria solani, 168 h, 0.001 ppm, read-out: Observed efficacy
[17] = Alternaria solani, 168 h, 0.016 ppm, read-out: Observed efficacy
[18] = Phytophthora infestans, 168 h, read-out: Observed efficacy

## COC(=O)Nc1nc2ccccc2[nH]1 [II-8, carbendazim, reference compound]
Septoria tritici; Zymoseptoria tritici, 168 h, 16 ppm, read-out: Observed efficacy
  inhibition of growth at 16 ppm: 16%
Botrytis cinerea; Botrytis cinerea, 168 h, 0.004 ppm, read-out: Observed efficacy
  inhibition of growth at 0.004 ppm: 5%
Botrytis cinerea; [1]
  inhibition of growth at 0.016 ppm: 3%
Alternaria solani; [2]
  inhibition of growth at 4 ppm: 7%
Alternaria solani; [3]
  inhibition of growth at 16 ppm: 10%
Alternaria solani; [4]
  inhibition of growth at 63 ppm: 34%

## CC1(C)CC/C(=C\c2ccc(Cl)cc2)C1(O)Cn1cncn1 (centres unmarked) [Triticonazol]
Pyricularia oryzae; 1 ppm
  Observed efficacy: 1
Pyricularia oryzae; 4 ppm
  Observed efficacy: 59

## CCOC(=O)C1CC(=O)C(=C(O)C2CC2)C(=O)C1 (centres unmarked) [II-3a, trinexapac-ethyl, reference compound]
Septoria tritici; Zymoseptoria tritici, 168 h, 4 ppm, read-out: Observed efficacy
  inhibition of growth at 4 ppm: 13%
Botrytis cinerea; [5]
  inhibition of growth at 4 ppm: 7%
Botrytis cinerea; [6]
  inhibition of growth at 16 ppm: 5%
Botrytis cinerea; Botrytis cinerea, 168 h, 63 ppm, read-out: Observed efficacy
  inhibition of growth at 63 ppm: 15%
Alternaria solani; [2]
  inhibition of growth at 4 ppm: 12%
Alternaria solani; [3]
  inhibition of growth at 16 ppm: 27%
Pyricularia oryzae; [7]
  inhibition of growth at 4 ppm: 5%
  inhibition of growth at 16 ppm: 21%
  inhibition of growth at 63 ppm: 81%

## COC(C)(Cn1cncn1)c1ccc(Oc2ccc(Cl)cc2)cc1Cl (centres unmarked) [I-20, 1-[2-[2-chloro-4-(4-chlorophenoxy)phenyl]-2-methoxy-propyl]-1,2,4-triazole]
Leptosphaeria nodorum; [8]
  inhibition of growth at 0.001 ppm: 5%
  inhibition of growth at 0.004 ppm: 10%
Leptosphaeria nodorum; [9]
  inhibition of growth at 0.016 ppm: 14%
Septoria tritici; [10]
  inhibition of growth at 0.001 ppm: 5%
Botrytis cinerea; [11]
  inhibition of growth at […]: 16%
Botrytis cinerea; [12]
  inhibition of growth at […]: 16%
Botrytis cinerea; [13]
  inhibition of growth at 1 ppm: 58%
Alternaria solani; [14]
  inhibition of growth at 0.004 ppm: 0%
Alternaria solani; [15]
  inhibition of growth at […]: 30%
Pyricularia oryzae; [7]
  inhibition of growth at 0.016 ppm: 0%

## CCCCCCCCc1c(CC)nc2ncnn2c1N [II-1, ametoctradin, reference compound]
Phytophthora infestans; 1 ppm
  Observed efficacy: 75
Botrytis cinerea; 16 ppm
  Observed efficacy: 3
Botrytis cinerea; 63 ppm
  Observed efficacy: 4
Alternaria solani; 4 ppm
  Observed efficacy: 5
Alternaria solani; 16 ppm
  Observed efficacy: 2
Alternaria solani; 63 ppm
  Observed efficacy: 6

## COCC(O)(Cn1cncn1)c1ccc(Oc2ccc(Cl)cc2)cc1Cl (centres unmarked) [I-26, 2-[2-chloro-4-(4-chlorophenoxy)phenyl]-1-methoxy-3-(1,2,4-triazol-1-yl)propan-2-ol]
Leptosphaeria nodorum; [8]
  inhibition of growth at 0.001 ppm: 9%
  inhibition of growth at 0.004 ppm: 15%
Leptosphaeria nodorum; [9]
  inhibition of growth at 0.016 ppm: 24%
Septoria tritici; [10]
  inhibition of growth at 0.001 ppm: 29%
  inhibition of growth at 6.3e-05 ppm: 19%
Botrytis cinerea; [11]
  inhibition of growth at […]: 44%
Alternaria solani; [16]
  inhibition of growth at 0.001 ppm: 5%
Alternaria solani; [17]
  inhibition of growth at 0.016 ppm: 4%
Pyricularia oryzae; [7]
  inhibition of growth at 0.016 ppm: 0%
  inhibition of growth at 1 ppm: 55%

## CC1COC(Cn2cncn2)(c2ccc(Oc3ccc(Cl)cc3)cc2Cl)O1 (centres unmarked) [Difenoconazol]
Leptosphaeria nodorum; 0.016 ppm
  Observed efficacy: 29
Septoria tritici; 0.016 ppm
  Observed efficacy: 26
Alternaria solani; 0.004 ppm
  Observed efficacy: 5
Alternaria solani; 0.016 ppm
  Observed efficacy: 5
Pyricularia oryzae; 1 ppm
  Observed efficacy: 11

## N#Cc1c[nH]cc1-c1cccc2c1OC(F)(F)O2 [II-34, fludioxonil, reference compound]
Pyricularia oryzae; [7]
  inhibition of growth at 0.016 ppm: 36%

## O=C(Nc1ccccc1-c1ccc(Cl)cc1)c1cccnc1Cl [II-7, boscalid, reference compound]
Leptosphaeria nodorum; Parastagonospora nodorum, 168 h, 4 ppm, read-out: Observed efficacy
  inhibition of growth at 4 ppm: 23%
Botrytis cinerea; [12]
  inhibition of growth at […]: 38%
Alternaria solani; [16]
  inhibition of growth at 0.001 ppm: 5%
Alternaria solani; [14]
  inhibition of growth at 0.004 ppm: 6%
Pyricularia oryzae; [7]
  inhibition of growth at 16 ppm: 2%

## Cc1ccc(C(C)NC(=O)[C@@H](NC(=O)OC(C)C)C(C)C)cc1 (some centres unmarked) [II-51, iprovalicarb, reference compound]
Leptosphaeria nodorum; 16 ppm
  Observed efficacy: 19
Botrytis cinerea; 4 ppm
  Observed efficacy: 2
Botrytis cinerea; 16 ppm
  Observed efficacy: 3
Botrytis cinerea; 63 ppm
  Observed efficacy: 6
Alternaria solani; 4 ppm
  Observed efficacy: 1
Alternaria solani; 16 ppm
  Observed efficacy: 2
Alternaria solani; 63 ppm
  Observed efficacy: 1
Pyricularia oryzae; 4 ppm
  Observed efficacy: 0

## Cn1cc(C(=O)Nc2ccc(F)cc2-c2ccc(Cl)c(Cl)c2)c(C(F)F)n1 [II-6, bixafen, reference compound]
Botrytis cinerea; 0.016 ppm
  Observed efficacy: 8
Alternaria solani; 0.001 ppm
  Observed efficacy: 5
Alternaria solani; 0.004 ppm
  Observed efficacy: 38
Pyricularia oryzae; 0.016 ppm
  Observed efficacy: 2

## Cn1cc(C(=O)Nc2ccccc2-c2cc(F)c(F)c(F)c2)c(C(F)F)n1 [II-42, fluxapyroxad, reference compound]
Alternaria solani; 0.001 ppm
  Observed efficacy: 4

## CC(C)(C)C(O)(CCc1ccc(Cl)cc1)Cn1cncn1 (centres unmarked) [Tebuconazol]
Phytophthora infestans; 0.016 ppm
  Observed efficacy: 1
Septoria tritici; 0.016 ppm
  Observed efficacy: 5
Botrytis cinerea; 0.016 ppm
  Observed efficacy: 9
Alternaria solani; 0.016 ppm
  Observed efficacy: 8

## CC(C)C(O)(Cn1cncn1)c1ccc(Oc2ccc(Cl)cc2)cc1Cl (centres unmarked) [I-19, 2-[2-chloro-4-(4-chlorophenoxy)phenyl]-3-methyl-1-(1,2,4-triazol-1-yl)butan-2-ol]
Leptosphaeria nodorum; Parastagonospora nodorum, 168 h, 0.25 ppm, read-out: Observed efficacy
  inhibition of growth at […]: 64%
Septoria tritici; Zymoseptoria tritici, 168 h, 0.000016 ppm, read-out: Observed efficacy
  inhibition of growth at 1.6e-05 ppm: 12%
Septoria tritici; [10]
  inhibition of growth at 0.001 ppm: 20%
  inhibition of growth at 6.3e-05 ppm: 13%
Botrytis cinerea; [1]
  inhibition of growth at 0.016 ppm: 20%
Botrytis cinerea; [11]
  inhibition of growth at […]: 29%
Alternaria solani; [16]
  inhibition of growth at 0.001 ppm: 1%
Alternaria solani; [14]
  inhibition of growth at 0.004 ppm: 0%
Alternaria solani; [17]
  inhibition of growth at 0.016 ppm: 0%
Alternaria solani; [15]
  inhibition of growth at […]: 25%

## CC1(C)CCC(Cc2ccc(Cl)cc2)C1(O)Cn1cncn1 (centres unmarked) [Metconazol]
Phytophthora infestans; 0.004 ppm
  Observed efficacy: 2
Septoria tritici; 0.016 ppm
  Observed efficacy: 24
Alternaria solani; 0.016 ppm
  Observed efficacy: 17
Pyricularia oryzae; 1 ppm
  Observed efficacy: 58

## Fc1ccc([C@]2(Cn3cncn3)O[C@H]2c2ccccc2Cl)cc1 [Epoxiconazol]
Septoria tritici; 0.016 ppm
  Observed efficacy: 16
Botrytis cinerea; 0.016 ppm
  Observed efficacy: 11
Alternaria solani; 0.004 ppm
  Observed efficacy: 5
Alternaria solani; 0.016 ppm
  Observed efficacy: 8

## CCC(=O)C1=C([O-])CC(C(=O)[O-])CC1=O.[Ca+2] (centres unmarked) [Prohexadion-ca]
Septoria tritici; 63 ppm
  Observed efficacy: 15
Botrytis cinerea; 4 ppm
  Observed efficacy: 10
Botrytis cinerea; 16 ppm
  Observed efficacy: 5
Botrytis cinerea; 63 ppm
  Observed efficacy: 4
Alternaria solani; 4 ppm
  Observed efficacy: 6
Alternaria solani; 16 ppm
  Observed efficacy: 2
Pyricularia oryzae; 4 ppm
  Observed efficacy: 2
Pyricularia oryzae; 16 ppm
  Observed efficacy: 2
Pyricularia oryzae; 63 ppm
  Observed efficacy: 3

## O=c1c2cc(F)ccc2nc(-n2cncn2)n1-c1ccc(Cl)cc1Cl [Fluquinconazol]
Phytophthora infestans; 4 ppm
  Observed efficacy: 0

## CC(C)C1C2CCC1c1c(NC(=O)c3cn(C)nc3C(F)F)cccc12 (centres unmarked) [II-50, isopyrazam, reference compound]
Phytophthora infestans; 16 ppm
  Observed efficacy: 23
Botrytis cinerea; 0.016 ppm
  Observed efficacy: 6
Alternaria solani; 0.016 ppm
  Observed efficacy: 15
Pyricularia oryzae; 0.004 ppm
  Observed efficacy: 1

## N#Cc1nn(-c2c(Cl)cc(C(F)(F)F)cc2Cl)c(N)c1[S+]([O-])C(F)(F)F (centres unmarked) [II-20c, fipronil, reference compound]
Phytophthora infestans; [18]
  inhibition of growth at 1 ppm: 4%
Alternaria solani; Alternaria solani, 168 h, 1 ppm, read-out: Observed efficacy
  inhibition of growth at 1 ppm: 6%
Alternaria solani; [2]
  inhibition of growth at 4 ppm: 2%
Pyricularia oryzae; [7]
  inhibition of growth at 4 ppm: 1%
  inhibition of growth at 16 ppm: 8%

## CON=C(C(=O)OC)c1ccccc1CON=C(C)c1cccc(C(F)(F)F)c1 [II-92, trifloxystrobin, reference compound]
Leptosphaeria nodorum; Parastagonospora nodorum, 168 h, 0.063 ppm, read-out: Observed efficacy
  inhibition of growth at […]: 39%
Botrytis cinerea; [5]
  inhibition of growth at 4 ppm: 2%
Botrytis cinerea; [6]
  inhibition of growth at 16 ppm: 6%
Alternaria solani; [14]
  inhibition of growth at 0.004 ppm: 7%
Alternaria solani; [17]
  inhibition of growth at 0.016 ppm: 11%
Pyricularia oryzae; [7]
  inhibition of growth at 0.004 ppm: 11%
  inhibition of growth at 0.016 ppm: 26%

## CCN(Cc1ccc(Cl)nc1)/C(=C/[N+](=O)[O-])NC [Nitenpyram]
Leptosphaeria nodorum; Parastagonospora nodorum, 168 h, 63 ppm, read-out: Observed efficacy
  inhibition of growth at 63 ppm: 23%
Septoria tritici; Zymoseptoria tritici, 168 h, 63 ppm, read-out: Observed efficacy
  inhibition of growth at 63 ppm: 10%
Alternaria solani; [2]
  inhibition of growth at 4 ppm: 2%
Alternaria solani; [3]
  inhibition of growth at 16 ppm: 2%
Alternaria solani; [4]
  inhibition of growth at 63 ppm: 8%
Pyricularia oryzae; [7]
  inhibition of growth at 4 ppm: 1%
  inhibition of growth at 16 ppm: 0%
  inhibition of growth at 63 ppm: 3%

## CO/N=C(/C1=NOCCO1)c1ccccc1Oc1ncnc(Oc2ccccc2Cl)c1F [II-37, fluoxastrobin, reference compound]
Phytophthora infestans; [18]
  inhibition of growth at 0.016 ppm: 4%
Botrytis cinerea; [13]
  inhibition of growth at 1 ppm: 5%
Botrytis cinerea; [5]
  inhibition of growth at 4 ppm: 10%
Botrytis cinerea; [6]
  inhibition of growth at 16 ppm: 23%
Alternaria solani; [17]
  inhibition of growth at 0.016 ppm: 11%
Alternaria solani; [15]
  inhibition of growth at […]: 27%
Pyricularia oryzae; [7]
  inhibition of growth at 0.004 ppm: 3%
  inhibition of growth at 0.016 ppm: 8%
